Measured values: patent publication US5180831A (priority 1990, dated 1993)
“Also recorded” adds a separate entry of the source.

How the values were obtained:
in vivo [1] = conditions: mouse, im
[2] = mouse, in vivo
electric eel AChE = electric eel AChE (Electrophorus electricus, UniProt O42275); assay: biochemical
human erythrocyte AChE = human erythrocyte AChE (Homo sapiens, UniProt P22303); assay: biochemical; conditions: read-out: kobs /[I] (human)
AChE = format: biochemical, electric eel and human
in vivo [3] = conditions: mouse, po
[4] = set-up: species or system Male ICR mice; conditions: mouse, in vivo

electric eel AChE, sequence (O42275 24-633): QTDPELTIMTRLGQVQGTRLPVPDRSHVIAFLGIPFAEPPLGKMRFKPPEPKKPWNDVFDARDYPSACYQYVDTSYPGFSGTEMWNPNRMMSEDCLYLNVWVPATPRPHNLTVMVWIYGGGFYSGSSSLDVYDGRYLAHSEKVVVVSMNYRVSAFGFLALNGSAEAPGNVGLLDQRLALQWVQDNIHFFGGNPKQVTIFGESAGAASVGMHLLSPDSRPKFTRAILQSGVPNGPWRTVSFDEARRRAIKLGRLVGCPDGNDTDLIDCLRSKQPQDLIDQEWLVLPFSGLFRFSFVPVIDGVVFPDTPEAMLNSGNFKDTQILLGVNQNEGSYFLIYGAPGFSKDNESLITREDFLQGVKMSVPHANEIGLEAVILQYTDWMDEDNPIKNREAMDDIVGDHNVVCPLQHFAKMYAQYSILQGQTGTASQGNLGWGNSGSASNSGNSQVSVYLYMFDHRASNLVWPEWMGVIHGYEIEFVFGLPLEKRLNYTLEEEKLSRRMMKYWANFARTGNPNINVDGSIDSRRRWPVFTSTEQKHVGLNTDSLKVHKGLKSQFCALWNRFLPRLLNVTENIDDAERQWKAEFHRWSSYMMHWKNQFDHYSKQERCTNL
human erythrocyte AChE, sequence (P22303-2 with tags, fused parts or gaps limits assumed): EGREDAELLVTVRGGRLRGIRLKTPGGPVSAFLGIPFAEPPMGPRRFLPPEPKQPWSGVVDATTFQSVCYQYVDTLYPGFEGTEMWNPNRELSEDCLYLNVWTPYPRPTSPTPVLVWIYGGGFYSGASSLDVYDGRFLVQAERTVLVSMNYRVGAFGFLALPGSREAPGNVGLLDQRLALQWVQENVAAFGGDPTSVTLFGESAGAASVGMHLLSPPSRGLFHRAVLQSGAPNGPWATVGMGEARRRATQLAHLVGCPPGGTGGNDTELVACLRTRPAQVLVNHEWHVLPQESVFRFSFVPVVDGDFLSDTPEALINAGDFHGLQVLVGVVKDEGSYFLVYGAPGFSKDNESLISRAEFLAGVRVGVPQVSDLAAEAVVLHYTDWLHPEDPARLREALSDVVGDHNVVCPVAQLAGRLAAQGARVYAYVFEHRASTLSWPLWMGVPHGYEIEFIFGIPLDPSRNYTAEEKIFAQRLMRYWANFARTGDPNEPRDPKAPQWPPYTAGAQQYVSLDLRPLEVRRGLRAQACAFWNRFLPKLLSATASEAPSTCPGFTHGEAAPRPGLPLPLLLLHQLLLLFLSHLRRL

**Q.** Which results are given for `C[n+]1cc(O)ccc1C=NO` [Compound 1g, reference compound]?
**A.** LD50 at 24 h (in vivo [1]): > 514 µmol/kg; toxicity in words [2]: small increase in toxicity

**Q.** Which LD50 at 24 h (in vivo [1]) does the source give for `C[n+]1ccccc1C=NNC(=O)Nc1ccccc1.[Cl-]` [Compound 3d, 1-Methyl-2-[[(N-phenylaminocarbonyl)hydrazono]methyl]pyridinium chloride] here?
**A.** > 430 µmol/kg

**Q.** Which results are given for `CN(C)C(=O)Oc1ccc[n+](C)c1` [Pyr, Pyridostigmine]?
**A.** kinact/KI (electric eel AChE; read-out: kobs /[I] (eel)): 580 M⁻¹ s⁻¹; kinact/KI (human erythrocyte AChE): 13000 M⁻¹ s⁻¹

**Q.** Which results are given for `C[n+]1ccccc1C=NOCc1ccccc1` [Compound 1a, O-Benzyl-N-(1-methyl-2-pyridinemethylene) hydroxylamine chloride]?
**A.** LD50 at 24 h (in vivo [1]): 180 µmol/kg; mode of inhibition (AChE): pure competitive inhibition

**Q.** For `COc1ccc(CON=Cc2c(O)ccc[n+]2C)cc1` [Compound 1e, O-(p-Methoxybenzyl)-N-(3-hydroxy-1-methyl-2-pyridinemethylene) hydroxylamine chloride], which LD50 at 24 h (in vivo [1]) is on record?
**A.** > 760 µmol/kg

**Q.** What about the LD50 at 24 h (in vivo [3]) of the same compound?
**A.** > 3200 µmol/kg

**Q.** And the mode of inhibition (AChE)?
**A.** pure competitive inhibition

**Q.** With `C[n+]1ccccc1C=NNC(=O)C[n+]1ccccc1` [Compound 5b, 2-(1-Methyl-2-pyridinemethylene)-1-[2-(1-pyridinium)acetyl]hydrazine dichloride] as the compound, how does the LD50 at 24 h (in vivo [1]) read?
**A.** 380 µmol/kg

**Q.** And the “GA reactivator activity in words” value [4]?
**A.** significant activity as GA reactivators; also recorded: good in vivo reactivators against GA

**Q.** Which toxicity in words [2] does the source give for `C[n+]1cccc(O)c1C=NO` [Compound 1f] here?
**A.** small increase in toxicity

**Q.** For `NC(=O)c1cc[n+](COC[n+]2ccccc2/C=N/O)cc1` [HI-6, reference compound], which LD50 at 24 h (in vivo [1]) is on record?
**A.** 4500 µmol/kg

**Q.** Which LD50 at 24 h (in vivo [1]) does the source give for `C[n+]1cccc(O)c1C=NNC(N)=O.[Cl-]` [Compound 3a, 2-[[(Aminocarbonyl)hydrazono]methyl]-3-hydroxy-1-methyl pyridinium chloride] here?
**A.** > 1100 µmol/kg

**Q.** For `C[n+]1cccc(O)c1C=NNC(=O)Nc1ccccc1.[Cl-]` [Compound 3b, 3-Hydroxy-1-methyl-2-[[(N-phenylaminocarbonyl)hydrazono]methyl]pyridinium chloride], which LD50 at 24 h (in vivo [1]) is on record?
**A.** > 40 µmol/kg

**Q.** What does the source list for `C[n+]1cccc(O)c1C=NOCc1ccc(Cl)cc1` [Compound 1d, O-(p-Chlorobenzyl)-N-(3-hydroxy-1-methyl-2-pyridinemethylene) hydroxylamine chloride]?
**A.** LD50 at 24 h (in vivo [1]): > 320 µmol/kg; mode of inhibition (AChE): pure competitive inhibition

**Q.** Which LD50 at 24 h (in vivo [1]) does the source give for `C[n+]1ccccc1C=NNC(N)=O` [Compound 3c] here?
**A.** > 560 µmol/kg

**Q.** Which LD50 at 24 h (in vivo [1]) does the source give for `C[n+]1cccc(O)c1C=NNC(=O)C[n+]1ccccc1` [Compound 5a, 2-(3-Hydroxy-1-methyl-2-pyridinemethylene)-1-[2-(1-pyridinium)acetyl]hydrazine dichloride] here?
**A.** > 670 µmol/kg

**Q.** What about the LD50 at 24 h (in vivo [3]) of the same compound?
**A.** 2900 µmol/kg

**Q.** What about the “GA reactivator activity in words” value [4] of the same compound?
**A.** significant activity as GA reactivators; also recorded: good in vivo reactivators against GA

**Q.** For `C[n+]1ccccc1/C=N/O` [Compound 2-PAM, reference compound], which LD50 at 24 h (in vivo [1]) is on record?
**A.** 853 µmol/kg

**Q.** Which LD50 at 24 h (in vivo [1]) does the source give for `CON=Cc1c(O)ccc[n+]1C` [Compound 1c, O-Methyl-N-(3-hydroxy-1-methyl-2-pyridinemethylene) hydroxylamine chloride] here?
**A.** > 1970 µmol/kg

**Q.** For `CNC(=O)Oc1ccc2c(c1)[C@]1(C)CCN(C)[C@@H]1N2C` [Phy, Physostigmine], which “kobs /[I] (eel)” value (electric eel AChE; 0.1 m phosphate buffer) is on record?
**A.** 14000 M⁻¹ s⁻¹

**Q.** Which results are given for `C[n+]1cccc(O)c1C=NOCc1ccccc1` [Compound 1b, O-Benzyl-N-(3-hydroxy-1-methyl-2-pyridinemethylene) hydroxylamine chloride]?
**A.** LD50 at 24 h (in vivo [1]): > 880 µmol/kg; LD50 at 24 h (in vivo [3]): 3600 µmol/kg; mode of inhibition (AChE): pure competitive inhibition
